Structures can show the parent of a compound that is named as a salt.
Legend:
[1] = biological target: T1, human neurokinin-3 receptors expressed in CHO cell lines (Homo sapiens, UniProt P29371); experiment: Binding affinity in hNK-3-CHO; conditions: human NK-3 receptors in CHO cell lines; radioligand [125I]-[Me-Phe7]-NKB
T1 construct: expressed in transfected cells; host or cells: CHO cells
T1 sequence (P29371 1-465): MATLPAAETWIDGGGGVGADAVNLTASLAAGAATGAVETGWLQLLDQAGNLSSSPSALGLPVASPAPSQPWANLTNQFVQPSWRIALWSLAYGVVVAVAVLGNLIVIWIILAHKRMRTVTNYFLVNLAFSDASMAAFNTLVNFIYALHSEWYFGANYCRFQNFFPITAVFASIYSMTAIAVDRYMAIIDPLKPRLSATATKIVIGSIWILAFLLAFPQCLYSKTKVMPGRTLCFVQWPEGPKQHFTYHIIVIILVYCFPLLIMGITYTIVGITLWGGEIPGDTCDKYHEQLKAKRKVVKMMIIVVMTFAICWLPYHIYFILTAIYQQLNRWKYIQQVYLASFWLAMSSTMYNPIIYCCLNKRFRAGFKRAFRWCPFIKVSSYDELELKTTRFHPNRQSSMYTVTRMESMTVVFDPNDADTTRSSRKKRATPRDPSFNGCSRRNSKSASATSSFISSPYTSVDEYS
Description: The activity of the compounds of the present invention, as NK3 ligands, is determined by their ability to inhibit the binding of the radiolabelled NK3 ligands. [^125I]-[Me-Phe^7]-NKB or [^3H]-Senktide, to guinea-pig and human NK3 receptors (Renzetti et al. 1991, Neuropeptide, 18, 104-114; Buell et al, 1992, FEBS, 299(1), 90-95; Chung et al, 1994, Biochem. Biophys. Res. Commun., 198(3), 967-972).
The binding assays utilized allow the determination of the concentration of the individual compound required to reduce by 50% the [^125I]-[Me-Phe^7]-NKB and [^3H]-Senktide specific binding to NK3 receptor in equilibrium conditions (IC50).
Binding assays provide for each compound tested a mean IC50 value of 2-5 separate experiments performed in duplicate or triplicate. […] The NK3-antagonist activity of the compounds of the present invention is determined by their ability to inhibit senktide-induced contraction of the guinea-pig ileum (Maggi et al, 1990, Br. J. Pharmacol., 101, 996-1000) and rabbit isolated iris sphincter muscle (Hall et al., 1991, Eur. J. Pharmacol., 199, 9-14) and human NK3 receptors-mediated Ca^++ mobilization (Mochizuki et al. 1994, J. Biol. Chem., 269, 9651-9658). Guinea-pig and rabbit in-vitro functional assays provide for each compound tested a mean KB value of 3-8 separate experiments, where KB is the concentration of the individual compound required to produce a 2-fold rightward shift in the concentration-response curve of senktide. Human receptor functional assay allows the determination of the concentration of the individual compound required to reduce by 50% (IC50 values) the Ca^++ mobilization induced by the agonist NKB. In this assay, the compounds of the present invention behave as antagonists.

SMILES: CC[C@H](NC(=O)c1c(OCCCN2CCN(C)CC2)c(-c2ccccc2)nc2ccccc12)c1ccccc1 (as salt: HCl) [Example 31]
- melting point: 160 to 170 °C

SMILES: CC[C@H](NC(=O)c1c(OCCCN2CCN(c3ccccc3)CC2)c(-c2ccccc2)nc2ccccc12)c1ccccc1 (as salt: HCl) [Example 33]
- melting point: 86 °C (dec.)

SMILES: CC[C@H](NC(=O)c1c(OCCCN2CCN(c3ncccn3)CC2)c(-c2ccccc2)nc2ccccc12)c1ccccc1 (as salt: HCl) [Example 40]
- melting point: 140 °C (dec.)

SMILES: CC[C@H](NC(=O)c1c(OCCO)c(-c2ccccc2)nc2ccccc12)c1ccccc1 [Example 2, (S)-N-(α-ethylbenzyl)-3-(2-hydroxyethoxy)-2-phenylquinoline-4-carboxamide]
- IC50 [1]: 1.6 nM

SMILES: CC[C@H](NC(=O)c1c(OCCN2Cc3ccccc3C2)c(-c2ccccc2)nc2ccccc12)c1ccccc1.Cl.Cl [Example 5, (S)-N-(α-ethylbenzyl)-3-[2-(2-isoindolinyl)ethoxy]-2-phenylquinoline-4-carboxamide Dihydrochloride]
- IC50 [1]: 1.2 nM
- melting point: 95 °C (dec.)

SMILES: CC[C@H](NC(=O)c1c(OCCN2C(=O)Cc3ccccc3C2=O)c(-c2ccccc2)nc2ccccc12)c1ccccc1 [Example 6, (S)-N-(α-ethylbenzyl)-3-(2-homophthalimidoethoxy)-2-phenylquinoline-4-carboxamide]
- IC50 [1]: 0.8 nM
- melting point: 159 to 161 °C

SMILES: CC[C@H](NC(=O)c1c(OCCCN2C(=O)c3ccccc3C2=O)c(-c2ccccc2)nc2ccccc12)c1ccccc1 [Example 9, (S)-N-(α-ethylbenzyl)-3-(3-phthalimidopropoxy)-2-phenylquinoline-4-carboxamide]
- IC50 [1]: 3.2 nM
- melting point: 125 to 128 °C

SMILES: CC[C@H](NC(=O)c1c(OCCCN)c(-c2ccccc2)nc2ccccc12)c1ccccc1 [Example 11, (S)-N-(α-ethylbenzyl)-3-(3-aminopropoxy)-2-phenylquinoline-4-carboxamide Hydrochloride]
- IC50 [1]: 2.6 nM

SMILES: CC[C@H](NC(=O)c1c(OCCN2Cc3ccccc3CC2=O)c(-c2ccccc2)nc2ccccc12)c1ccccc1 [Example 14, (S)-N-(α-ethylbenzyl)-3-[2-(1,4-dihydro-3(2H)-isoquinolinon-2-yl)ethoxy]-2-phenylquinoline-4-carboxamide]
- IC50 [1]: 1.7 nM
- melting point: 153 to 156 °C

SMILES: CC[C@H](NC(=O)c1c(OCCN2C(=O)CCC2=O)c(-c2ccccc2)nc2ccccc12)c1ccccc1 [Example 15, (S)-N-(α-ethylbenzyl)-3-(2-succinimidoethoxy)-2-phenylquinoline-4-carboxamide]
- melting point: 80 °C (dec.)

SMILES: CC[C@H](NC(=O)c1c(OCCN2C(=O)C=CC2=O)c(-c2ccccc2)nc2ccccc12)c1ccccc1 [Example 16, (S)-N-(α-ethylbenzyl)-3-(2-maleimidoethoxy)-2-phenylquinoline-4-carboxamide]
- melting point: 74 to 78 °C

SMILES: CC[C@H](NC(=O)c1c(OCCN2C(=O)CNC2(C)C)c(-c2ccccc2)nc2ccccc12)c1ccccc1 [Example 17, (S)-N-(α-ethylbenzyl)-3-[2-(2,2-dimethyl-4-oxo-3-imidazolidinyl)ethoxy]-2-phenylquinoline-4-carboxamide]
- IC50 [1]: 3.4 nM
- melting point: 160 to 162 °C

SMILES: CC[C@H](NC(=O)c1c(OCCCN2CCN(c3ccccc3OC)CC2)c(-c2ccccc2)nc2ccccc12)c1ccccc1.Cl.Cl [Example 18, (S)-N-(α-ethylbenzyl)-3-{3-[4-(2-methoxyphenyl)piperazin-1-yl]propoxy}-2-phenylquinoline-4-carboxamide Dihydrochloride]
- IC50 [1]: 0.4 nM
- melting point: 151 to 155 °C

SMILES: CC[C@H](NC(=O)c1c(OCCN2C(=O)[C@@H](c3ccccc3)NC2(C)C)c(-c2ccccc2)nc2ccccc12)c1ccccc1 [Example 21, (S)-N-(α-ethylbenzyl)-3-{2-[2,2-dimethyl-5-(R)-phenyl-4-oxo-3-imidazolidinyl]ethoxy}-2-phenylquinoiine-4-carboxamide]
- IC50 [1]: 0.9 nM
- melting point: 147 to 150 °C

SMILES: CC[C@H](NC(=O)c1c(OCCN2CCc3ccccc3C2=O)c(-c2ccccc2)nc2ccccc12)c1ccccc1 [Example 22, (S)-N-(α-ethylbenzyl)-3-[2-(3,4-dihydro-1(2H)-isoquinolinon-2-yl)ethoxy]-2-phenylquinoline-4-carboxamide]
- IC50 [1]: 1.3 nM
- melting point: 71 °C (dec.)

SMILES: CC[C@H](NC(=O)c1c(CN2CCN(c3ccccc3)CC2)c(-c2ccccc2)nc2ccccc12)c1ccccc1 [Example 30]
- IC50 [1]: 1.1 nM
- melting point: 142 to 145 °C

SMILES: CC[C@H](NC(=O)c1c(OCCCN2CCN(C)CC2)c(-c2ccccc2)nc2ccccc12)c1ccccc1 [Example 31]
- IC50 [1]: 3.3 nM

SMILES: CC[C@H](NC(=O)c1c(OCCCN2CCN(c3ccccc3)CC2)c(-c2ccccc2)nc2ccccc12)c1ccccc1 [Example 33]
- IC50 [1]: 0.7 nM

SMILES: CC[C@H](NC(=O)c1c(OCCCN2CCN(c3cccc(Cl)c3)CC2)c(-c2ccccc2)nc2ccccc12)c1ccccc1 [Example 34]
- IC50 [1]: 0.8 nM
- melting point: 115 to 135 °C

SMILES: CC[C@H](NC(=O)c1c(OCCCN2CCN(c3ncccn3)CC2)c(-c2ccccc2)nc2ccccc12)c1ccccc1 [Example 40]
- IC50 [1]: 1.1 nM

SMILES: CC[C@H](NC(=O)c1c(OCCCN2C(=O)c3nccnc3C2=O)c(-c2ccccc2)nc2ccccc12)c1ccccc1 [Example 42]
- IC50 [1]: 2.7 nM
- melting point: 100 to 105 °C
